Like-named read-outs stand apart in the source and are kept apart here.
Assays:
[1] = In vitro cytotoxicity assay; type: cell-based; settings: human, THP1 human monocytic leukaemia cells
[2] = tested on: BALB/c 3T3 mouse fibroblasts; assay: In vitro 3T3 Neutral Red Uptake (NRU) phototoxicity assay; type: cell-based; settings: 3T3 NRU
Protocol: Extinction coefficients were 16131 and 8507 L mol^-1 cm^-1, respectively. An in vitro 3T3 Neutral Red Uptake (NRU) phototoxicity assay was then conducted using a 96-well cytotoxicity-based assay that utilizes normal BALB/c 3T3 mouse fibroblasts to measure the concentration-dependent reduction in neutral red uptake by the cells after exposure to test material either in the presence or absence of UVA light. The assay was performed according to OECD (Test No. 432) test guidance ([42]). Duplicate 96-well monolayers of 3T3 fibroblasts were exposed to serial dilutions of test material. One of the plates was exposed to 5 J/cm2 UVA while the other plate was kept in the dark. To assess viability, the NRU by cells exposed to the test chemical in the presence of UVA exposure was compared to the NRU by cells exposed to the test chemical in the absence of UVA exposure. The Photo-Irritation-Factor (PIF) and Mean Photo Effect (MPE) were calculated.

5-HT transporter = molecular target: T1, 5-HT transporter (Homo sapiens, UniProt P31645); assay: In vitro pharmacology panel (Eurofins); type: binding; settings: read-out: activity (% of DMSO control)
T1 construct: purchased Eurofins (Cerep/DiscoverX SafetyScreen44 in vitro pharmacology panel)
Description: (§1) Listed values represent the percent change relative to the DMSO control activity. When an IC50 had to be determined, eight different concentrations were included. All values are the mean of assay readout duplicates.

5-HT1A = molecular target: T2, 5-HT1A (Homo sapiens, UniProt P08908); assay: In vitro pharmacology panel (Eurofins); type: binding; settings: read-out: activity (% of DMSO control)
T2 construct: purchased Eurofins (Cerep/DiscoverX SafetyScreen44 in vitro pharmacology panel)
Description: as §1

5-HT1B = molecular target: T3, 5-HT1B (Rattus norvegicus, UniProt P28564); assay: In vitro pharmacology panel (Eurofins); type: binding; settings: read-out: activity (% of DMSO control)
T3 construct: purchased Eurofins (Cerep/DiscoverX SafetyScreen44 in vitro pharmacology panel)
T3 sequence (P28564 whole entry): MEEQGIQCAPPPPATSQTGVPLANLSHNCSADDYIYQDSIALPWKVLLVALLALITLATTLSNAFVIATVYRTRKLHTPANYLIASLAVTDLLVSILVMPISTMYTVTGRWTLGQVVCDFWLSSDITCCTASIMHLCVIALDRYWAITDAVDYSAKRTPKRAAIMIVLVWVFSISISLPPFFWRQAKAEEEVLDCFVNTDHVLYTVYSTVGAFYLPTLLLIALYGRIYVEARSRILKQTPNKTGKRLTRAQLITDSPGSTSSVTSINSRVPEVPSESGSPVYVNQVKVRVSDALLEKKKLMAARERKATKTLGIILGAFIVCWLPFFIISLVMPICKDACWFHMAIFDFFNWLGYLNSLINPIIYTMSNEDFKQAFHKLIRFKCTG
Description: as §1

5-HT2A = molecular target: T4, 5-HT2A (Homo sapiens, UniProt P28223); assay: In vitro pharmacology panel (Eurofins); type: binding; settings: read-out: activity (% of DMSO control)
T4 construct: purchased Eurofins (Cerep/DiscoverX SafetyScreen44 in vitro pharmacology panel)
T4 sequence (P28223 whole entry): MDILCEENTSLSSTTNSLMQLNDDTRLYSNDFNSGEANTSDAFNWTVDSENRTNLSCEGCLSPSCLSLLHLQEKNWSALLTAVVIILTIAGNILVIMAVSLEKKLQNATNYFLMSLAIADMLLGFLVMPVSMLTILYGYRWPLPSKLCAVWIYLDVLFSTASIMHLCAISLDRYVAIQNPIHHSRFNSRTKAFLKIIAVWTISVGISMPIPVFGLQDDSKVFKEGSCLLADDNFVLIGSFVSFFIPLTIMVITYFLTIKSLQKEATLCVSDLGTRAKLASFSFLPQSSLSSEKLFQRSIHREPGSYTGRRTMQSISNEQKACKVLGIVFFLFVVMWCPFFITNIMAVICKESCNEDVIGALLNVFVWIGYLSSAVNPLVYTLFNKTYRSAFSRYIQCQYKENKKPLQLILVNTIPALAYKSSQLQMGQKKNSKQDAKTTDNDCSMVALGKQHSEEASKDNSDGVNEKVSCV
Description: as §1

5-HT2B = molecular target: T5, 5-HT2B (Homo sapiens, UniProt P41595); assay: In vitro pharmacology panel (Eurofins); type: binding; settings: read-out: activity (% of DMSO control)
T5 construct: purchased Eurofins (Cerep/DiscoverX SafetyScreen44 in vitro pharmacology panel)
Description: as §1

5-HT3 = molecular target: T6, 5-HT3 (Homo sapiens, UniProt P46098); assay: In vitro pharmacology panel (Eurofins); type: binding; settings: read-out: activity (% of DMSO control)
T6 construct: purchased Eurofins (Cerep/DiscoverX SafetyScreen44 in vitro pharmacology panel)
Description: as §1

A2A = molecular target: T7, A2A (Homo sapiens, UniProt P29274); assay: In vitro pharmacology panel (Eurofins); type: binding; settings: read-out: activity (% of DMSO control)
T7 construct: purchased Eurofins (Cerep/DiscoverX SafetyScreen44 in vitro pharmacology panel)
Description: as §1

CB1 = molecular target: T8, CB1 (Homo sapiens, UniProt P21554); assay: In vitro pharmacology panel (Eurofins); type: binding; settings: read-out: activity (% of DMSO control)
T8 construct: purchased Eurofins (Cerep/DiscoverX SafetyScreen44 in vitro pharmacology panel)
Description: as §1

CB2 = molecular target: T9, CB2 (Homo sapiens, UniProt P34972); assay: In vitro pharmacology panel (Eurofins); type: binding; settings: read-out: activity (% of DMSO control)
T9 construct: purchased Eurofins (Cerep/DiscoverX SafetyScreen44 in vitro pharmacology panel)
Description: as §1

CCK1 (CCKA) = molecular target: T10, CCK1 (CCKA) (Homo sapiens, UniProt P32238); assay: In vitro pharmacology panel (Eurofins); type: binding; settings: read-out: activity (% of DMSO control)
T10 construct: purchased Eurofins (Cerep/DiscoverX SafetyScreen44 in vitro pharmacology panel)
T10 sequence (P32238 whole entry): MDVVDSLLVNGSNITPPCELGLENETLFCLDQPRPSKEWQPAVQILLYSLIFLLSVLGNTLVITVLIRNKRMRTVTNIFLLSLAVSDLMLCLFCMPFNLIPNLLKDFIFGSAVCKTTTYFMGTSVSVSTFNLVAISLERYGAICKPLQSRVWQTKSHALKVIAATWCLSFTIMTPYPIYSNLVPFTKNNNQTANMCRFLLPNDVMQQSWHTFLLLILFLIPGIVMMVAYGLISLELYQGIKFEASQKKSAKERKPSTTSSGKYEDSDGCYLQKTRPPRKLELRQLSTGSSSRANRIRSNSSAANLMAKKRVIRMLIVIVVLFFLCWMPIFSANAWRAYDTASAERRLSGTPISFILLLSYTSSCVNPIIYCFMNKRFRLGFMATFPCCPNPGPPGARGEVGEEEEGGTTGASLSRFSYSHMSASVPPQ
Description: as §1

D1 = molecular target: T11, D1 (Homo sapiens, UniProt P21728); assay: In vitro pharmacology panel (Eurofins); type: binding; settings: read-out: activity (% of DMSO control)
T11 construct: purchased Eurofins (Cerep/DiscoverX SafetyScreen44 in vitro pharmacology panel)
Description: as §1

D2S = molecular target: T12, D2S (Homo sapiens, UniProt P14416); assay: In vitro pharmacology panel (Eurofins); type: binding; settings: read-out: activity (% of DMSO control)
T12 construct: purchased Eurofins (Cerep/DiscoverX SafetyScreen44 in vitro pharmacology panel)
T12 sequence (P14416 1-414 isoform P14416-2): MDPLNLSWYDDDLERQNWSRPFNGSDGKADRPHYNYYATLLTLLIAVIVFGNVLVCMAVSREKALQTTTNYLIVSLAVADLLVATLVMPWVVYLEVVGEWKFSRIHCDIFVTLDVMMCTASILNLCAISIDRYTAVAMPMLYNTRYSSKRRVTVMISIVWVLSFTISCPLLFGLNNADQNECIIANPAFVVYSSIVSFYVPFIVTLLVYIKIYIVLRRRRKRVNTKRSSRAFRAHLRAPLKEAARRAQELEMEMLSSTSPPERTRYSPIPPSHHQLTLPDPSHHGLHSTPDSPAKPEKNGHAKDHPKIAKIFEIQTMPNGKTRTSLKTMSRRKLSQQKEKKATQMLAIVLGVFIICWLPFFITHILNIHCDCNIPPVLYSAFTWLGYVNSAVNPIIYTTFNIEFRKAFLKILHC
Description: as §1

ETA = molecular target: T13, ETA (Homo sapiens, UniProt P25101); assay: In vitro pharmacology panel (Eurofins); type: binding; settings: read-out: activity (% of DMSO control)
T13 construct: purchased Eurofins (Cerep/DiscoverX SafetyScreen44 in vitro pharmacology panel)
Description: as §1

GR = molecular target: T14, GR (Homo sapiens, UniProt P04150); assay: In vitro pharmacology panel (Eurofins); type: binding; settings: read-out: activity (% of DMSO control)
T14 construct: purchased Eurofins (Cerep/DiscoverX SafetyScreen44 in vitro pharmacology panel)
Description: as §1

H1 = molecular target: T15, H1 (Homo sapiens, UniProt P35367); assay: In vitro pharmacology panel (Eurofins); type: binding; settings: read-out: activity (% of DMSO control)
T15 construct: purchased Eurofins (Cerep/DiscoverX SafetyScreen44 in vitro pharmacology panel)
Description: as §1

H2 = molecular target: T16, H2 (Homo sapiens, UniProt P25021); assay: In vitro pharmacology panel (Eurofins); type: binding; settings: read-out: activity (% of DMSO control)
T16 construct: purchased Eurofins (Cerep/DiscoverX SafetyScreen44 in vitro pharmacology panel)
Description: as §1

M1 = molecular target: T17, M1 (Homo sapiens, UniProt P11229); assay: In vitro pharmacology panel (Eurofins); type: binding; settings: read-out: activity (% of DMSO control)
T17 construct: purchased Eurofins (Cerep/DiscoverX SafetyScreen44 in vitro pharmacology panel)
T17 sequence (P11229 whole entry): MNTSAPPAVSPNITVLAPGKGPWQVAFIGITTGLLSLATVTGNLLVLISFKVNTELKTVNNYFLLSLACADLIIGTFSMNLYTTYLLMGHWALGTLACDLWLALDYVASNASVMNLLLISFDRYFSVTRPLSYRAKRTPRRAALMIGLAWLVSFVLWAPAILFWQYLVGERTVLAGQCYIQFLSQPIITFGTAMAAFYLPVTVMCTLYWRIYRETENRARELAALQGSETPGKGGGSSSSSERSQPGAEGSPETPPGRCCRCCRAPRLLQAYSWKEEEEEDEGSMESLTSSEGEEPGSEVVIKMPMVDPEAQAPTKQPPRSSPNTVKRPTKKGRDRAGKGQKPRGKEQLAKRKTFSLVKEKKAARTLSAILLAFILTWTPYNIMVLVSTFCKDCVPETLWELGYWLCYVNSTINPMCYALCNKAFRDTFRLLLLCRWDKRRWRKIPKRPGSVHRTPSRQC
Description: as §1

M2 = molecular target: T18, M2 (Homo sapiens, UniProt P08172); assay: In vitro pharmacology panel (Eurofins); type: binding; settings: read-out: activity (% of DMSO control)
T18 construct: purchased Eurofins (Cerep/DiscoverX SafetyScreen44 in vitro pharmacology panel)
Description: as §1

M3 = molecular target: T19, M3 (Homo sapiens, UniProt P20309); assay: In vitro pharmacology panel (Eurofins); type: binding; settings: read-out: activity (% of DMSO control)
T19 construct: purchased Eurofins (Cerep/DiscoverX SafetyScreen44 in vitro pharmacology panel)
Description: as §1

MAO-A = molecular target: T20, MAO-A (Rattus norvegicus, UniProt P21396); assay: In vitro pharmacology panel (Eurofins); type: binding; settings: read-out: activity (% of DMSO control)
T20 construct: purchased Eurofins (Cerep/DiscoverX SafetyScreen44 in vitro pharmacology panel)
T20 sequence (P21396 whole entry): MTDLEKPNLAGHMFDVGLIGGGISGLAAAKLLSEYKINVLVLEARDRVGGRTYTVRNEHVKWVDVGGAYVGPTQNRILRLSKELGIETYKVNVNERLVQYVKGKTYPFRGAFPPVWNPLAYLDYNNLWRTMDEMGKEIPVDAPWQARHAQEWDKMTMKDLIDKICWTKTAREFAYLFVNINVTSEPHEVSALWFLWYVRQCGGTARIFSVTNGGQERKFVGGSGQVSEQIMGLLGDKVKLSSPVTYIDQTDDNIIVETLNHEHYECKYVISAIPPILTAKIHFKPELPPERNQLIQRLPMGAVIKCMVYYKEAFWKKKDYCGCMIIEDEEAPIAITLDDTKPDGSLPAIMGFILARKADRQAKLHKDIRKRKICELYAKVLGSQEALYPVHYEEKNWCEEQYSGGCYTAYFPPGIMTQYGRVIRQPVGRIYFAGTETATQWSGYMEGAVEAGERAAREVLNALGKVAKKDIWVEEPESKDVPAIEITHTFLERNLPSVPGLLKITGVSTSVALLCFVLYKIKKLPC
Description: as §1

N neuronal α4β2 = molecular target: T21, N neuronal α4β2 (Homo sapiens, UniProt P17787+P43681); assay: In vitro pharmacology panel (Eurofins); type: binding; settings: read-out: activity (% of DMSO control)
T21 construct: purchased Eurofins (Cerep/DiscoverX SafetyScreen44 in vitro pharmacology panel)
Description: as §1

V1 a = molecular target: T22, V1 a (Homo sapiens, UniProt P37288); assay: In vitro pharmacology panel (Eurofins); type: binding; settings: read-out: activity (% of DMSO control)
T22 construct: purchased Eurofins (Cerep/DiscoverX SafetyScreen44 in vitro pharmacology panel)
T22 sequence (P37288 whole entry): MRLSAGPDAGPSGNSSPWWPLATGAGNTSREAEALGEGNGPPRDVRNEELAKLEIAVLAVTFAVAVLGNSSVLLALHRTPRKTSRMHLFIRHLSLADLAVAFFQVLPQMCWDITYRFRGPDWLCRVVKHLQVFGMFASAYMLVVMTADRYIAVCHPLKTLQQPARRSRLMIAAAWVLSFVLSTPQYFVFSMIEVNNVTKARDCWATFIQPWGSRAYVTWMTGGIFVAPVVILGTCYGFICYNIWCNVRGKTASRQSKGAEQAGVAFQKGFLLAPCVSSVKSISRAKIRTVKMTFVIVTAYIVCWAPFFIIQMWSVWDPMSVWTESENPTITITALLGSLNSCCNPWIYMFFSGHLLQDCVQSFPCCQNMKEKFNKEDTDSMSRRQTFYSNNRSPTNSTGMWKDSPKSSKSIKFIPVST
Description: as §1

dopamine transporter = molecular target: T23, dopamine transporter (Homo sapiens, UniProt Q01959); assay: In vitro pharmacology panel (Eurofins); type: binding; settings: read-out: activity (% of DMSO control)
T23 construct: purchased Eurofins (Cerep/DiscoverX SafetyScreen44 in vitro pharmacology panel)
Description: as §1

[3] = molecular target: T24, norepinephrine transporter (Homo sapiens, UniProt P23975); assay: In vitro pharmacology panel (Eurofins); type: binding; settings: read-out: activity (% of DMSO control)
T24 construct: purchased Eurofins (Cerep/DiscoverX SafetyScreen44 in vitro pharmacology panel)
Description: as §1

α1A = molecular target: T25, α1A (Homo sapiens, UniProt P35348); assay: In vitro pharmacology panel (Eurofins); type: binding; settings: read-out: activity (% of DMSO control)
T25 construct: purchased Eurofins (Cerep/DiscoverX SafetyScreen44 in vitro pharmacology panel)
T25 sequence (P35348 whole entry): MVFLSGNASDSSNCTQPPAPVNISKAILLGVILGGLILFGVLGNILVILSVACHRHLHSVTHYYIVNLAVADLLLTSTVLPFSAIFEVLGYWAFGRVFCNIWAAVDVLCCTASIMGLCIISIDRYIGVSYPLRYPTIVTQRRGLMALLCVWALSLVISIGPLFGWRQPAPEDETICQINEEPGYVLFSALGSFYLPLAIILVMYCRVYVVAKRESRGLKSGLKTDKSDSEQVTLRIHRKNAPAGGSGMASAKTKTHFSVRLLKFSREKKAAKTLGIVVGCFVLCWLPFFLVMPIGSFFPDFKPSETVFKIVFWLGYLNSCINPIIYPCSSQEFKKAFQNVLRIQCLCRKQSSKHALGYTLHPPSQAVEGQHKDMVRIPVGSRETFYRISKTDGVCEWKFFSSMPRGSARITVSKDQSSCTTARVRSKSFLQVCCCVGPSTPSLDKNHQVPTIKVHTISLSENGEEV
Description: as §1

α2A = molecular target: T26, α2A (Homo sapiens, UniProt P08913); assay: In vitro pharmacology panel (Eurofins); type: binding; settings: read-out: activity (% of DMSO control)
T26 construct: purchased Eurofins (Cerep/DiscoverX SafetyScreen44 in vitro pharmacology panel)
Description: as §1

β1 = molecular target: T27, β1 (Homo sapiens, UniProt P08588); assay: In vitro pharmacology panel (Eurofins); type: binding; settings: read-out: activity (% of DMSO control)
T27 construct: purchased Eurofins (Cerep/DiscoverX SafetyScreen44 in vitro pharmacology panel)
Description: as §1

β2 = molecular target: T28, β2 (Homo sapiens, UniProt P07550); assay: In vitro pharmacology panel (Eurofins); type: binding; settings: read-out: activity (% of DMSO control)
T28 construct: purchased Eurofins (Cerep/DiscoverX SafetyScreen44 in vitro pharmacology panel)
T28 sequence (P07550 whole entry): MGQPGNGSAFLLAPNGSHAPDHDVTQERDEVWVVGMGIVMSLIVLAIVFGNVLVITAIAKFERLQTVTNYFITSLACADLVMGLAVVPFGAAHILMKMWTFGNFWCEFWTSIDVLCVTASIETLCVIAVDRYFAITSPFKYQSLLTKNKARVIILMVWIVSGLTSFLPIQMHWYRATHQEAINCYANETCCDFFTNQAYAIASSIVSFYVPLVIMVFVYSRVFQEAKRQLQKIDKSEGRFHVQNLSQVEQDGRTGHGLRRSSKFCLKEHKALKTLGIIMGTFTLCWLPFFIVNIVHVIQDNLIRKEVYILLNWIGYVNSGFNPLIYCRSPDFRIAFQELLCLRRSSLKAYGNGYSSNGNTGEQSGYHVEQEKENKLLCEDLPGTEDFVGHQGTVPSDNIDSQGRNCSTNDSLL
Description: as §1

δ (DOP) = molecular target: T29, δ (DOP) (Homo sapiens, UniProt P41143); assay: In vitro pharmacology panel (Eurofins); type: binding; settings: read-out: activity (% of DMSO control)
T29 construct: purchased Eurofins (Cerep/DiscoverX SafetyScreen44 in vitro pharmacology panel)
T29 sequence (P41143 whole entry): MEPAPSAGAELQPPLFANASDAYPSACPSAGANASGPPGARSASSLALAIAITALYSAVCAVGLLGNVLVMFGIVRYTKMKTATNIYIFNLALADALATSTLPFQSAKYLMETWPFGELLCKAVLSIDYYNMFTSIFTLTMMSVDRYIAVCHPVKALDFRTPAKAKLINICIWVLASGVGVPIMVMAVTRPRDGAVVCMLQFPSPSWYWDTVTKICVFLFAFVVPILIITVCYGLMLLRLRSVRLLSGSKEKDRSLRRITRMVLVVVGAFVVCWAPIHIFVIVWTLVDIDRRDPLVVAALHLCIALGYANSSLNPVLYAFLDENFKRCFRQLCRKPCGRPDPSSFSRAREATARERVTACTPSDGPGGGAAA
Description: as §1

κ (KOP) = molecular target: T30, κ (KOP) (Rattus norvegicus, UniProt P34975); assay: In vitro pharmacology panel (Eurofins); type: binding; settings: read-out: activity (% of DMSO control)
T30 construct: purchased Eurofins (Cerep/DiscoverX SafetyScreen44 in vitro pharmacology panel)
Description: as §1

μ (MOP) = molecular target: T31, μ (MOP) (Homo sapiens, UniProt P35372); assay: In vitro pharmacology panel (Eurofins); type: binding; settings: read-out: activity (% of DMSO control)
T31 construct: purchased Eurofins (Cerep/DiscoverX SafetyScreen44 in vitro pharmacology panel)
T31 sequence (P35372 whole entry): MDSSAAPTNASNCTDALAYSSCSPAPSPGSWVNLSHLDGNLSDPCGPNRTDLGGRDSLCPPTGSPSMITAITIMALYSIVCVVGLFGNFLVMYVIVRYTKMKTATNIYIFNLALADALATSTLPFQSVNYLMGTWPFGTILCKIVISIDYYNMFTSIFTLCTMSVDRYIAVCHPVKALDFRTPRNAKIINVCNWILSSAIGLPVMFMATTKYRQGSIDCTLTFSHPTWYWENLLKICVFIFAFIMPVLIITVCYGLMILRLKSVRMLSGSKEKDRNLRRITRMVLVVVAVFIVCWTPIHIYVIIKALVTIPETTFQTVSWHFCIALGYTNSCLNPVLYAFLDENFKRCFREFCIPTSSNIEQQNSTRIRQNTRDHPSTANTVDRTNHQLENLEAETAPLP
Description: as §1

In vivo pharmacokinetics = assay: In vivo pharmacokinetics; set-up: species or system female BALB/c mice; settings: for AUC(0-t) / AUC / Cmax / Cmax at 5 days: mice, 5 days; for AUC(0-t): read-out: AUC0-24 (first dose); for AUC: read-out: AUC96-120 (last dose); for Cmax: read-out: Cmax (first dose); for Cmax at 5 days: read-out: Cmax (last dose)
[4] = female, BALB/c, mouse, plasma, oral 3.6 mg/kg bid
[5] = female, BALB/c, mouse, plasma, oral 7.1 mg/kg bid
[6] = female, BALB/c, mouse, plasma, oral 12.5 mg/kg bid

## Cc1[nH]c2nc(N)nc(C)c2c1-c1ccc(C#N)c2c1OCO2 [DNDI-6174]
[1]
  CC50: > 50 µM
[2]
  risk of being phototoxic, in words: discarded
5-HT transporter
  remaining activity at 10 µM: 69.9%
5-HT1A
  remaining activity at 10 µM: 107%
5-HT1B
  remaining activity at 10 µM: 91.4%
5-HT2A
  remaining activity at 10 µM: 93.9%
5-HT2B
  remaining activity at 10 µM: 81.4%
5-HT3
  remaining activity at 10 µM: 105%
A2A
  remaining activity at 10 µM: 83.8%
CB1
  remaining activity at 10 µM: 104%
CB2
  remaining activity at 10 µM: 96.1%
CCK1 (CCKA)
  remaining activity at 10 µM: 126%
D1
  remaining activity at 10 µM: 63.1%
D2S
  remaining activity at 10 µM: 77.6%
ETA
  remaining activity at 10 µM: 103%
GR
  remaining activity at 10 µM: 93%
H1
  remaining activity at 10 µM: 91.8%
H2
  remaining activity at 10 µM: 120%
M1
  remaining activity at 10 µM: 91.5%
M2
  remaining activity at 10 µM: 92.9%
M3
  remaining activity at 10 µM: 98.5%
MAO-A
  remaining activity at 10 µM: 94.3%
N neuronal α4β2
  remaining activity at 10 µM: 100%
V1 a
  remaining activity at 10 µM: 101%
Dopamine transporter
  remaining activity at 10 µM: 60.6%
[3]
  remaining activity at 10 µM: 81.9%
α1A
  remaining activity at 10 µM: 25.1%
α2A
  remaining activity at 10 µM: 60.3%
β1
  remaining activity at 10 µM: 113%
β2
  remaining activity at 10 µM: 102%
δ (DOP)
  remaining activity at 10 µM: 102%
κ (KOP)
  remaining activity at 10 µM: 90.6%
μ (MOP)
  remaining activity at 10 µM: 94.3%
In vivo pharmacokinetics; bid dosing in mice
  increase in Cmax over the 5-day dosing period: approximately 2 fold
In vivo pharmacokinetics; female, BALB/c, mouse, plasma, iv, 2 mg/kg, Mouse, read-out: Measured in vivo CLplasma
  clearance: 7.5 mL/min/kg
In vivo pharmacokinetics; [4]
  AUC(0-t): 10600 ng·h/mL
  AUC: 15700 ng·h/mL
  Cmax: 600 ng/mL
  Cmax at 5 days: 1350 ng/mL
In vivo pharmacokinetics; [5]
  AUC(0-t): 35500 ng·h/mL
  AUC: 37000 ng·h/mL
  Cmax: 1930 ng/mL
  Cmax at 5 days: 3040 ng/mL
In vivo pharmacokinetics; [6]
  AUC(0-t): 94500 ng·h/mL
  AUC: 93300 ng·h/mL
  Cmax: 3830 ng/mL
  Cmax at 5 days: 6810 ng/mL
In vivo pharmacokinetics; female, BALB/c, plasma, Mouse, intravenous 2.0 mg/kg, read-out: Plasma AUC0-inf
  AUC(0-inf): 4470 ng·h/mL
In vivo pharmacokinetics; female, BALB/c, plasma, Mouse, oral 25 mg/kg, read-out: Apparent t1/2 (converted)
  half-life: 3.7 h
In vivo pharmacokinetics; female, BALB/c, plasma, Mouse, oral 25 mg/kg, read-out: Plasma AUC0-∞
  AUC(0-inf): 75500 ng·h/mL
